In patent publication US9771602B2 (priority 2013, dated 2017):
Where “and” joins values, the source holds several entries; their conditions need not be identical. Equal values may be shown once. Where a name gives a salt, the structure may show the parent alone. Read-outs that look alike come from different tables or passages of the source.

What was measured:
[1] = tested on: S. cerevisiae yeast strains PNY0860-1A, PNY827 and CEN.PK 113-7D; assay: Filter-disk growth inhibition assay with AHAS inhibitors on top agar plates; type: cell-based; conditions: filter disks containing 20 μg or 10 μg AHAS inhibitor; 72 hours at 30° C.
[2] = tested on: ethanologen yeast PNY 827; assay: microbe, parasite or virus in culture; type: cell-based, Saccharomyces cerevisiae; conditions: for Ki: read-out: KI (inhibitory constant on growth)
[3] = tested on: NYLA84 ILV2-410::loxP71/66 with pLH468 and pLH475-JEA1; type: cell-based, S. cerevisiae; conditions: 0 μg/ml to 50 μg/ml sulfometuron methyl; strains expressing cytosolic acetolactate synthase
[4] = tested on: mixed cultures of ethanologen S. cerevisiae PNY 827 and the butanologen yeast S. cerevisiae PNY 2129; type: cell-based
[5] = Saccharomyces cerevisiae, PNY827, read-out: IC50 on growth (inhibitor concentration with 50% μ°max)
[6] = fit to hybrid inhibition kinetics model
[7] = fit to squared inhibition kinetics

With `COC(=O)c1ccccc1S(=O)(=O)NC(=O)Nc1nc(C)cc(C)n1` [sulfometuron methyl] the “zones of growth inhibition (inhibition of yeast growth)” value (“zones of growth inhibition” below) [1] was “inhibit growth”, the “overall observable μ°max” value [2] was 0.59 L/h and the “μmax (maximum specific growth rate)” value [2] was 0.04 L/h and 0.05 L/h. For the same compound, the “μ°max 1” value [2] was 0.55 L/h, the “μ°max 2” value [2] was 0.04 L/h and the IC50 [2, 5] was < 0.1 mM. The Ki [2, 6] was < 0.1 mM and the “resistance (growth scored after overnight incubation)” value [3] was “higher resistance”.

`O=S([O-])[O-].[Na+].[Na+]` [sulfite, sodium sulfite] was tested, and the “OD600corr [ ]” value [2] was 0.081 and 0.087 and 0.088 and 0.092, the “OD600corr [ ]” value ([2]; 1 mM (F8-su-1), time 1.00 h) was 0.082 and the “OD600corr [ ]” value ([2]; 1 mM (F8-su-1), time 2.25 h) was 0.121. For the same compound, the “OD600corr [ ]” value ([2]; 1 mM (F8-su-1), time 3.25 h) was 0.185, the “OD600corr [ ]” value ([2]; 1 mM (F8-su-1), time 4.25 h) was 0.307 and the “OD600corr [ ]” value ([2]; 1 mM (F8-su-1), time 6.00 h) was 1.102. The “OD600corr [ ]” value ([2]; 1 mM (F8-su-1), time 23.67 h) was 11.157, the “μmax (maximum specific growth rate)” value ([2]; 1 mM inhibitor) was 0.59 L/h and the “OD600corr [ ]” value ([2]; 2 mM (F9-su-2), time 1.00 h) was 0.086. The “OD600corr [ ]” value ([2]; 2 mM (F9-su-2), time 2.25 h) was 0.120, the “OD600corr [ ]” value ([2]; 2 mM (F9-su-2), time 3.25 h) was 0.173 and the “OD600corr [ ]” value ([2]; 2 mM (F9-su-2), time 4.25 h) was 0.265. The “OD600corr [ ]” value ([2]; 2 mM (F9-su-2), time 6.00 h) was 0.887, the “OD600corr [ ]” value ([2]; 2 mM (F9-su-2), time 23.67 h) was 12.217 and the “μmax (maximum specific growth rate)” value ([2]; 2 mM inhibitor) was 0.54 L/h. The “OD600corr [ ]” value ([2]; 5 mM (F10-su-3), time 1.00 h) was 0.090, the “OD600corr [ ]” value ([2]; 5 mM (F10-su-3), time 2.25 h) was 0.116 and the “OD600corr [ ]” value ([2]; 5 mM (F10-su-3), time 3.25 h) was 0.153. The “OD600corr [ ]” value ([2]; 5 mM (F10-su-3), time 4.25 h) was 0.208, the “OD600corr [ ]” value ([2]; 5 mM (F10-su-3), time 6.00 h) was 0.392 and the “OD600corr [ ]” value ([2]; 5 mM (F10-su-3), time 9.58 h) was 2.572. For the same compound, the “OD600corr [ ]” value ([2]; 5 mM (F10-su-3), time 23.67 h) was 11.717, the “μmax (maximum specific growth rate)” value ([2]; 5 mM inhibitor) was 0.33 L/h and the “OD600corr [ ]” value ([2]; 10 mM (F11-su-4), time 1.00 h) was 0.085. The “OD600corr [ ]” value ([2]; 10 mM (F11-su-4), time 2.25 h) was 0.111, the “OD600corr [ ]” value ([2]; 10 mM (F11-su-4), time 3.25 h) was 0.140 and the “OD600corr [ ]” value ([2]; 10 mM (F11-su-4), time 4.25 h) was 0.175. The “OD600corr [ ]” value ([2]; 10 mM (F11-su-4), time 6.00 h) was 0.268, the “OD600corr [ ]” value ([2]; 10 mM (F11-su-4), time 9.58 h) was 1.102 and the “OD600corr [ ]” value ([2]; 10 mM (F11-su-4), time 23.67 h) was 11.437. The “μmax (maximum specific growth rate)” value ([2]; 10 mM inhibitor) was 0.23 L/h, the “OD600corr [ ]” value ([2]; 20 mM (F3-su-1), time 1.50 h) was 0.099 and the “OD600corr [ ]” value ([2]; 20 mM (F3-su-1), time 2.67 h) was 0.115. For the same compound, the “OD600corr [ ]” value ([2]; 20 mM (F3-su-1), time 4.00 h) was 0.150, the “OD600corr [ ]” value ([2]; 20 mM (F3-su-1), time 5.33 h) was 0.182 and the “OD600corr [ ]” value ([2]; 20 mM (F3-su-1), time 6.75 h) was 0.226. For the same compound, the “OD600corr [ ]” value ([2]; 20 mM (F3-su-1), time 9.42 h) was 0.396, the “OD600corr [ ]” value ([2]; 20 mM (F3-su-1), time 23.25 h) was 9.697 and the “μmax (maximum specific growth rate)” value ([2]; 20 mM inhibitor) was 0.18 L/h. For the same compound, the “OD600corr [ ]” value ([2]; 50 mM (F4-su-2), time 1.50 h) was 0.095, the “OD600corr [ ]” value ([2]; 50 mM (F4-su-2), time 2.67 h) was 0.116 and the “OD600corr [ ]” value ([2]; 50 mM (F4-su-2), time 4.00 h) was 0.135. For the same compound, the “OD600corr [ ]” value ([2]; 50 mM (F4-su-2), time 5.33 h) was 0.161, the “OD600corr [ ]” value ([2]; 50 mM (F4-su-2), time 6.75 h) was 0.192 and the “OD600corr [ ]” value ([2]; 50 mM (F4-su-2), time 9.42 h) was 0.295. For the same compound, the “OD600corr [ ]” value ([2]; 50 mM (F4-su-2), time 23.25 h) was 10.717, the “μmax (maximum specific growth rate)” value ([2]; 50 mM inhibitor) was 0.14 L/h and the “μ°max 1” value [2, 6] was 0.46 L/h. The “μ°max 2” value [2, 6] was 0.15 L/h, the Ki [2, 6] was 4.4 mM and the “overall observable μ°max” value ([2]; predicted by hybrid inhibition kinetics model) was 0.61 L/h. For the same compound, the IC50 ([2]; read-out: IC50 on growth (inhibitor concentration with 50% μ°max), derived from inhibition kinetics and fitted parameters) was 6.2 mM.

In the case of `Cc1cn[nH]c1.Cl` [4-methylpyrazole hydrochloride], the “μ°max (fitted maximum specific growth rate without inhibitor)” value [2] is reported as 0.58 L/h, the Ki [2, 7] is reported as 41 mM and the “inhibitor-based mumax (corrected for effect of DMSO)” value (“inhibitor-based mumax” below) ([2]; hydrochloride) is reported as 0.48 L/h and 0.38 L/h. The “observed μmax” value ([2]; hydrochloride) was 0.48 L/h and 0.24 L/h.

With `COc1cc(OC)nc(NC(=O)NS(=O)(=O)c2ncccc2C(=O)N(C)C)n1` [Accent, nicosulfuron methyl] the “zones of growth inhibition” value [1] was “did not inhibit”.

For `COC(=O)c1sccc1S(=O)(=O)NC(=O)Nc1nc(C)nc(OC)n1` [Harmony, thifensulfuron methyl], the “zones of growth inhibition” value [1] was “did not inhibit”.

`c1cn[nH]c1` [pyrazole] was tested, and the “overall observable μ°max” value [2] was 0.60 L/h, the “μ°max 1” value [2] was 0.52 L/h and the “μ°max 2” value [2] was 0.08 L/h. The IC50 [2, 5] was 3.3 mM, the Ki [2, 6] was 2.8 mM and the “DHIV + DHMB” value [4] was 0.0 mM. The “butanol-to-ethanol ratio compared with no inhibitor” value ([4]; 3 mM and 30 mM, inoculum ratios 1:1 and 1:11, EPT=8 h) was “dramatically increased” and the “butanol:ethanol ratio compared with no inhibitor” value ([4]; 30 mM, both inoculum ratios, EPT=48 h) was “significantly increased”.

For `CCOC(=O)c1ccccc1S(=O)(=O)NC(=O)Nc1nc(Cl)cc(OC)n1` [Classic, chlorimuron ethyl], the “zones of growth inhibition” value [1] was “inhibit growth”.

With `C[S+](C)[O-]` [DMSO] the “μmax (maximum specific growth rate)” value [2] was 0.56 L/h and the Ki [2] was ~16 mM.

For `COC(=O)c1ccccc1S(=O)(=O)NC(=O)Nc1nc(C)nc(OC)n1` [Ally, metsulfuron methyl], the “zones of growth inhibition” value [1] was “inhibit growth”.

In the case of `O=C/C=C/c1ccccc1` [cinnamaldehyde, trans-cinnamaldehyde], the “inhibitor-based mumax” value [2] is reported as 0.64 L/h and 0.63 L/h and 0.55 L/h, the “observed μmax” value [2] is reported as 0.64 L/h and 0.63 L/h and 0.55 L/h and the “μ°max (fitted maximum specific growth rate without inhibitor)” value [2] is reported as 0.62 L/h. For the same compound, the IC50 [2, 5] was 0.25 mM, the Ki [2, 7] was 0.25 mM and the cell growth ([2]; non-DMSO experiments: 200 mM, 100 mM, 50 mM, 25 mM, 10 mM, 1 mM) was “in none of the non-DMSO experiments any cell growth was observed”. The “DHIV + DHMB” value [4] was 0.0 mM, the “ratio of butanol vs. ethanol produced compared with no addition” value ([4]; 250 μM, inoculum ratios 1:1 and 1:11, EPT=8 h and EPT=48 h) was “lower” and the “growth of mixed cultures” value ([4]; 25 mM, both mixed cultures (1:1 and 1:11), EPT=8 h and EPT=48 h) was “No growth”.

With `O=C(O)c1cn[nH]c1` [4-pyrazolecarboxylic acid] the “inhibitor-based mumax” value [2] was 0.59 L/h and 0.50 L/h, the “μ°max (fitted maximum specific growth rate without inhibitor)” value [2] was 0.60 L/h and the Ki [2, 7] was 100 mM.

For `C=O` [formaldehyde], the “μ°max (fitted maximum specific growth rate without inhibitor)” value [2] was 0.59 L/h and the IC50 [2, 5] was 0.9 mM.

For `O=CC(=O)O` [glyoxylic acid, glyoxylic acid sodium salt monohydrate], the “μ°max (fitted maximum specific growth rate without inhibitor)” value [2] was 0.60 L/h and the “μmax (maximum specific growth rate)” value ([2]; sodium salt monohydrate) was 0.59 L/h and 0.55 L/h.
